The text below walks through data of patent publication US11123340B2, “Small-molecule UT-A-selective urea transport inhibitors” (The Regents of the University of California, priority 2014, dated 2021).

Some results are limits rather than exact numbers.

Series [1] concerns MDCK cells. As to the kind of experiment: Cell toxicity, Alamar blue assay. The format is cell-based, canine. Conditions: 24 h, up to 25 μM. As to the method: MDCK cells on black 96-well Costar microplates with clear plastic bottoms were cultured for 24 h at 37° C. and incubated with test compounds (0 to 25 μM) for 24 h. Cell viability was assayed using AlamarBlue (Pierce, Rockford, Ill.) in which the reagent was added to each well, incubated for 30 min, and absorbance measured at 590 nm. For short-circuit current measurement, snapwell inserts containing MDCK cells were mounted on Ussing chambers. Test compounds (20 μM) were incubated with MDCK cells at both apical and basolateral sides for 10 min at 37° C. prior to addition of 20 μM forskolin and then 100 μM ATP. The apical and basolateral chambers contained identical solutions: 120 mM NaCl, 5 mM KCl, 1 mM MgCl2, 1 mM CaCl2, 5 mM HEPES, 25 mM NaHCO3 and 10 mM glucose. Solutions were bubbled with 5% CO2/95% O2 and maintained at 37° C. […]
Compound toxicity was evaluated by compound incubation for 24 h with MDCK cell cultures followed by Alamar blue assay. […] To assess potential ion channel off-target effects, short-circuit current was measured in MDCK cells in response to cAMP (forskolin) and calcium (ATP) agonists (FIG. 5C, right), which depends on the actions of multiple anion (CFTR, calcium-activated chloride channels) and cation (K^+, Na^+) channels.
For orientation: The colour change of resazurin is a common sign of viable cells or microbes.

Series [2] deals with MDCK cell monolayers. As to the kind of experiment: Inhibitor permeability across MDCK cell monolayers (LC/MS). The settings on record: computed from surface-to-volume considerations. The format is in vitro ADME, canine. As to the method:
UT-A1 expressing MDCK cells were grown on 12-mm diameter collagen-coated Transwell inserts (0.4 μm pore size; Costar, Costar, N.Y.) to form tight monolayers (resistance>500 Ωcm^2), as described (see, e.g., Levin et al. (2007) FASEB J. 21, 551-563). Urea flux in the basolateral-to-apical direction was measured in response to a 15 mM urea gradient in which PBS containing forskolin (10 μM), with or without UT-A1 inhibitor and 0.7 mM phloretin, was added to both the apical-facing (0.2 mL) and basal-facing (2 mL) surfaces. After 30 min the basal-facing solution was replaced by PBS containing test compound+15 mM urea. Apical fluid samples (5 μL) were collected at specified times for enzymatic assay of urea (QUANTICHROME Urea Assay Kit; BioAssay Systems, Hayward, Calif.). To measure inhibitor permeability across MDCK cell layers, compounds (20 μM) were added on the basal-facing surface and fluid samples (20 μL) from the apical-facing surface were collected at different time points and analyzed by LC/MS.
To further evaluate the potential site of inhibitor action, the kinetics of UT-A1 inhibition was measured by assay of UT-A1 inhibition at different times after compound addition. […] To assess inhibitor membrane permeability transport of UTAinh-E02 and UTAinh-F11 across MDCK monolayers grown on porous filters by LC/MS was measured. Transport of UTAinh-F11 was much faster than that of UTAinh-E02 (FIG. 3C, right lower panel), with computed transepithelial permeability coefficients of […] and 1.1×10^−5 cm/s, respectively. From surface-to-volume considerations, the equilibration times were computed of UTAinh-E02 and UTAinh-F11 to be 250 and 14 s, respectively, in MDCK cells, which are consistent with intracellular sites of action of both inhibitors.

Series [3] is described as follows: Pharmacokinetics in rats. Format: in vivo. Conditions: rat; for half-life: plasma, read-out: plasma elimination t1/2 (converted). As to the method: UTAinh-E02 or UTAinh-F11 was administered at 20 mg/kg intravenously by tail vein to rats. UTAinh-E02 was formulated as a 5 mg/mL saline solution containing 20% dimethylacetamide and 40% 2-hydroxypropyl γ-cyclodextrin; UTAinh-F11 was formulated as a 5 mg/mL saline solution containing 20% dimethylacetamide and 0.6 mg/mL NaOH. Blood samples were collected from the tail vein into K3EDTA mini collecting tubes (Greiner, Kremsmunster, Austria) at specified time points. Plasma samples were separated by centrifugation and kept frozen at −20 OC until analysis. Urine samples were also collected. Calibration standards were prepared in urine and plasma from control (non-treated) rats to which known amounts of UTAinh-E02 or UTAinh-F11 were added. The mixture was centrifuged for 20 min at 13,200 rpm and 90 μL of supernatant was taken for LC/MS. The solvent system consisted of a linear gradient from 5% to 95% acetonitrile containing 0.1% formic acid over 16 min (0.2 mL/min flow). Mass spectra was acquired on a mass spectrometer (Waters 2695+micromass ZQ; Waters) using electrospray (+) ionization, mass ranging from 100 to 1500 Da, 40-V cone voltage.
Several vehicles and administration routes were tested in order to give predicted therapeutic inhibitor concentrations in blood and urine. […] Because of the alkaline pH of the administered compounds the vehicle control for UTAinh-F11 was 20% dimethylacetamide and 1.2 mg/mL NaHCO3 in saline to give identical pH. […] Urine levels of UTAinh-F11 were >3 μM over 6 h.

The mark [4] stands for this setting: intraperitoneal, subcutaneous or oral, up to 100 mg/kg.

Turning to `CC(=O)Nc1ccc(-c2csc(-c3c[nH]c4ccccc34)n2)cc1` [UTA1inh-E02, N-(4-(2-(1H-indol-3-yl)thiazol-4-yl)phenyl)acetamide], the toxicity result in series [1] was “little toxicity”. Besides, in series [2], the “equilibration time in MDCK cells” value was 250 s. Also, in series [3] (intravenous 20 mg/kg), the half-life was roughly 4.5 h, the plasma level initially is roughly 6 µM and the urine level initially is roughly 3 µM. Moreover, in series [3] (setting [4]), the plasma concentration was less than 1 µM and the urine concentration was less than 1 µM.
With `COc1ccc(C)cc1S(=O)(=O)Nc1ccc(Cl)c(N2CCCS2(=O)=O)c1` [UTA1inh-F11, N-[4-Chloro-3-(1,1-dioxido-1,2-thiazolidin-2-yl)phenyl]-2-methoxy-5-methylbenzene-sulfonamide], the toxicity entry in series [1] is recorded as “little toxicity”. Besides, the “equilibration time in MDCK cells” value in series [2] is recorded as 14 s. For the same molecule, in series [3] (intravenous 20 mg/kg), the half-life was roughly 1 h, the plasma level initially result is reported as “higher initial plasma levels than UTAinh-E02” and the “urine levels over 6 h” value was greater than 3 µM.
